Results as given in patent US6903101B1, “Substituted pyridazines and fused pyridazines with angiogenesis inhibiting activity” (Bayer Pharmaceuticals Corporation, priority 2000, dated 2005).
pIC50: −log10 of the molar value. Counter-ions that a name gives are not always drawn.

Columns and labels:
[1] = molecular target: T1, full length KDR receptor in NIH3T3 cells (Homo sapiens, UniProt P35968); experiment: Cell mechanistic assay - Inhibition of 3T3 KDR phosphorylation; type: cell-based; conditions: NIH3T3 cells expressing KDR, VEGF (30 ng/ml) stimulation, receptor phosphotyrosine ELISA
T1 construct: NIH3T3 cells expressing the full length KDR receptor were grown in DMEM; expressed in transfected cells; host or cells: NIH3T3 cells (G418 selection)
Procedure: Cell mechanistic assay-Inhibition of 3T3 KDR phosphorylation:
NIH3T3 cells expressing the full length KDR receptor were grown in DMEM (Life Technologies, Inc., Grand Island, N.Y.) supplemented with 10% newborn calf serum, low glucose, 25 mM/L sodium pyruvate, pyridoxine hydrochloride and 0.2 mg/ml of G418 (Life Technologies Inc., Grand Island, N.Y.). The cells were maintained in collagen I-coated T75 flasks (Becton Dickinson Labware, Bedford, Mass.) in a humidified 5% CO2 atmosphere at 37° C.
Fifteen thousand cells were plated into each well of a collagen I-coated 96-well plate in the DMEM growth medium. Six hours later, the cells were washed and the medium was replaced with DMEM without serum. […]
To assess receptor phosphorylation, 100 microliters of each cell lysate was added to the wells of an ELISA plate precoated with 300 ng of antibody C20 (Santa Cruz Biotechnology, Inc., Santa Cruz, Calif.). […] Wells were washed and phosphotyrosine was quantitated by addtion of 100 μl per well of 3,3′,5,5′ tetramethylbenzidine (Kirkegaard and Perry, TMB Microwell 1 Component peroxidase substrate) solution. […]
Optical densities (OD) were determined spectrophotometrically at 450 nm in a 96-well plate reader (SpectraMax 250, Molecular Devices). Background (no VEGF added) OD values were subtracted from all ODs and percent inhibition was calculated according to the equation: [formula] […]

[2] = molecular target: T2, KDR kinase domain (Homo sapiens, UniProt P35968); experiment: KDR Assay (kinase ELISA, poly(Glu4;Tyr1) phosphorylation); type: biochemical; conditions: 3.3 μM ATP, 60 minutes room temperature
T2 construct: The cytosolic kinase domain of KDR kinase was expressed as a 6 His fusion protein in Sf9 insect cells; 6 His; made in house; host or cells: Sf9 insect cells
Procedure: The cytosolic kinase domain of KDR kinase was expressed as a 6 His fusion protein in Sf9 insect cells. The KDR kinase domain fusion protein was purified over a Ni++chelating column. Ninety-six well ELISA plates were coated with 5 μg poly(Glu4;Tyr1) (Sigma Chemical Co., St Louis, Mo.) in 100 μl HEPES buffer (20 mM HEPES, pH 7.5, 150 mM NaCl, 0.02% Thimerosal) at 4° overnight. Before use, the plate was washed with HEPES, NaCl buffer and the plates were blocked with 1% BSA, 0.1% Tween 20 in HEPES, NaCl buffer.
Test compounds were serially diluted in 100% DMSO from 4 mM to 0.12 μM in half-log dilutions. These dilutions were further diluted twenty fold in H2O to obtain compound solutions in 5% DMSO. […]
The assay was incubated with test compound or vehicle alone with gentle agitation at room temperature for 60 minutes. […] PY/anti-PY complexes were detected with an anti-mouse IgG/HRP conjugate (Amershamn International plc, Buckinghamshire, England). Phosphotyrosine was quantitated by incubating with 100 μl 3, 3′, 5, 5′ tetramethylbenzidine solution (Kirkegaard and Perry, TMB Microwell 1 Component peroxidase substrate). […]
Optical densities were determined spectrophotometrically at 450 nm in a 96-well plate reader, SpectraMax 250 (Molecular Devices). Background (no ATP in assay) OD values were subtracted from all ODs and the percent inhibition was calculated according to the equation: [formula] […]

T2 sequence (P35968 834-1162 limits assumed): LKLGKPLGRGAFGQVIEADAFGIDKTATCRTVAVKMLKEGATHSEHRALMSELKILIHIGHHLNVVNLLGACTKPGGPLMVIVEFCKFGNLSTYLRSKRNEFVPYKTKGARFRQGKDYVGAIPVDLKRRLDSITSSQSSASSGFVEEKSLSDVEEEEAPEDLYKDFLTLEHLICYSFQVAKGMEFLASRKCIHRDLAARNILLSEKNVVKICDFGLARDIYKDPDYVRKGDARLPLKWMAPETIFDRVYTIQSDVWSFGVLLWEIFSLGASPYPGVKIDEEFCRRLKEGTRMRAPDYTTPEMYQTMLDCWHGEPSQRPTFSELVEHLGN
T1 sequence (P35968 20-1356): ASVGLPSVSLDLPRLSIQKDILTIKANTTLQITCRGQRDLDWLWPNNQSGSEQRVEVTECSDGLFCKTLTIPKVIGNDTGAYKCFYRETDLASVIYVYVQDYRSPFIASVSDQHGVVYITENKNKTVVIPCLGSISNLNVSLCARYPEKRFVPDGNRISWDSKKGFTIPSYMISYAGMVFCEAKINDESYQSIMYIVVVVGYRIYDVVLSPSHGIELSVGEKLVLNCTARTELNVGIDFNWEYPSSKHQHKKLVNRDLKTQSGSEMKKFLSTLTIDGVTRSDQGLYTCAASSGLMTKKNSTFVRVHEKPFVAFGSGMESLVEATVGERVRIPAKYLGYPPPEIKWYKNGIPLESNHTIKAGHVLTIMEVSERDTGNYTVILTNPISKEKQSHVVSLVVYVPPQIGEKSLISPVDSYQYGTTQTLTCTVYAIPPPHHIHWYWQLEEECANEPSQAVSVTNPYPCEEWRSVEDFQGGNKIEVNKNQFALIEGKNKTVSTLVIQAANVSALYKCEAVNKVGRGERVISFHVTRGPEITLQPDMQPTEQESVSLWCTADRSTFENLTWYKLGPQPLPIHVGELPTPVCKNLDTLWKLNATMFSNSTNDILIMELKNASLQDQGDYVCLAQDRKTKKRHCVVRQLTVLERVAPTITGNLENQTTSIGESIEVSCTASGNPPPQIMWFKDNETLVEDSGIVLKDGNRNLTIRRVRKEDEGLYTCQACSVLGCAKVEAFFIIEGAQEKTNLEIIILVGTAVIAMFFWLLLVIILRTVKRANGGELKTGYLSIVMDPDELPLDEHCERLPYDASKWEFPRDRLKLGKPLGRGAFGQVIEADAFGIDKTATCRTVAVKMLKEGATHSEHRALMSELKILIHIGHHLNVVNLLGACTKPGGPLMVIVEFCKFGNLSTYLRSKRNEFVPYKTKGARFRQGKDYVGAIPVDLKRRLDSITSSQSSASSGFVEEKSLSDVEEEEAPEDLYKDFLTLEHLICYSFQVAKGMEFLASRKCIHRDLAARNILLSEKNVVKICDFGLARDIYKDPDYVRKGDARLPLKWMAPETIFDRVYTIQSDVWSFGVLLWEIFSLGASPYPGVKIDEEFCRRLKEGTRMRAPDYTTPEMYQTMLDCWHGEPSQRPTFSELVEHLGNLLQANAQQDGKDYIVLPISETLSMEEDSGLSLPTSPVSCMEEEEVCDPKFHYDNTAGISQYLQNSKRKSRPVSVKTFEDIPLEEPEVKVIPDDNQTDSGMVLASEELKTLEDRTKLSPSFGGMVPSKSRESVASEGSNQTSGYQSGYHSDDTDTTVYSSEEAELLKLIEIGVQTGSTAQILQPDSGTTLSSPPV

SMILES | melting point | pIC50 [1] | pIC50 [2]
CNC(=O)c1cc(Cc2nnc(Nc3ccc(Cl)cc3)c3ccccc23)ccn1 (as salt: hydrochloride) [Example 11, 4-[4-(4-Chlorophenylamino)phthalazin-1-ylmethyl]pyridin-2-yl carboxylic acid methylamide dihydrochloride] | 255 °C (dec.) | – | –
CNC(=O)c1cc(Cc2nnc(Nc3ccc(Cl)cc3)c3ccccc23)ccn1 (as salt: methanesulfonate) [Example 12, 4-[4-(4-Chlorophenylamino)phthalazin-1-ylmethyl]pyridin-2-yl carboxylic acid methylamide dimethanesulfonate] | 245 to 249 °C | – | –
Cl.Cl.NC(=O)c1cc(Cc2nnc(Nc3ccc(Cl)cc3)c3ccccc23)ccn1 [Example 13, 4-[4-(4-Chlorophenylamino)phthalazin-1-ylmethyl]pyridin-2-yl carboxylic acid amide dihydrochloride] | 180 to 198 °C | – | –
Clc1ccc(Nc2ccc(OCc3ccncc3)nn2)cc1 [Example 21] | – | < 7.30 | < 6.00

Second part, led by results:

melting point | SMILES | pIC50 [1] | pIC50 [2]
143 to 145.2 °C | NC(=O)c1cc(COc2nnc(Nc3ccc(Cl)cc3)c3ccccc23)ccn1 (as salt: hydrochloride) [Example 15, 4-[4-(4-Chlorophenylamino)phthalazin-1-yloxymethyl]pyridin-2-yl carboxylic acid amide dihydrochloride] | – | –
156 to 161 °C | NC(=O)c1cc(Cc2nnc(Nc3ccc(Cl)cc3)c3ccccc23)ccn1 (as salt: methanesulfonate) [Example 14, 4-[4-(4-Chlorophenylamino)phthalazin-1-ylmethyl]pyridin-2-yl carboxylic acid amide dimethanesulfonate] | – | –
75 to 80 °C | NC(=O)c1cc(COc2nnc(Nc3ccc(Cl)cc3)c3ccccc23)ccn1 (as salt: methanesulfonate) [Example 16, 4-[4-(4-Chlorophenylamino)phthalazin-1-yloxymethyl]pyridin-2-yl carboxylic acid amide dimethanesulfonate] | – | –
122 to 123 °C | N#CC(c1ccncc1)c1nnc(Nc2ccc3c(c2)CCC3)c2ccccc12 (stereo not shown) [Example 22, 1-(indan-5-ylamino)-4-(4-pyridylcyanomethyl)phthalazine] | – | –
163 to 164 °C | c1ccc2c(Nc3ccc4ncsc4c3)nnc(Cc3ccncc3)c2c1 [Example 23] | – | –
